In this experiment the target is T1, Dual specificity protein phosphatase 1 (Homo sapiens, UniProt P28562).
T1 sequence (P28562 whole entry): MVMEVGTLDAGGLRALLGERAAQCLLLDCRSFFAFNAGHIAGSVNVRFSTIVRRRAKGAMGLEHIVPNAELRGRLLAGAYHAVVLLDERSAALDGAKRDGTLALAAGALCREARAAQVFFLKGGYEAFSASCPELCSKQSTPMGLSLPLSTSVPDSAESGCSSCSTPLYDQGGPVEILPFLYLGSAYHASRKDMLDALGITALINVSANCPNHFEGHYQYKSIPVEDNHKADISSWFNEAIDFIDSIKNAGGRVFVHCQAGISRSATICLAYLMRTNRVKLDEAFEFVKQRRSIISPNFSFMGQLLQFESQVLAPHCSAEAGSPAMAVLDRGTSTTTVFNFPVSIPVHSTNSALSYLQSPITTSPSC
The experiment in a line: MKP-1 phosphatase inhibitors, repeat potency, dose response, biochemical, reproducibility testing, probe assessment (AID 563).

As to `O=C1C=Cc2ccccc2C1=O` [1,2-dihydronaphthalene-1,2-dione], half-maximal inhibition (IC50) required 36.4 µM. In the case of `CCOc1ccc2noc3c2c1C(=O)c1ccccc1-3` [MLS000106837], the concentration for half-maximal inhibition (IC50) (commonly the concentration that gives 50% inhibition) was above 50 µM. The result for `CC(=O)[C@@H]1[C@@H]2C(=O)N(c3ccc(F)c(Cl)c3)C(=O)[C@@H]2C2c3ccccc3C=CN21` (stereo not given in full) [MLS000040594] reads above 50 µM. In the case of `CC(C)(C)N1C(=O)Cc2c1nc(N)c1c(N)nc(N3CCCCC3CO)c(C#N)c21` (stereo not given) [5,6-bis(azanyl)-3-tert-butyl-8-[2-(hydroxymethyl)piperidin-1-yl]-2-oxidanylidene-1H-pyrrolo[2,3-c][2,7]naphthyridine-9-carbonitrile], the IC50 was above 50 µM.

With `O=C1Nc2ccccc2SC(c2ccccc2)C1O` (stereo not given) [3-hydroxy-2-phenyl-2,3-dihydro-1,5-benzothiazepin-4(5H)-one], inhibition was half-maximal at 33.2 µM (IC50). Compound `COc1ccc(-n2c(NC(=O)c3ccco3)c(C#N)c3nc4ccccc4nc32)cc1` [MLS000079925] came in with an IC50 of 34.1 µM. `O=C(Nc1ccc2nc(-c3ccco3)c(-c3ccco3)nc2c1)N1CCCCCC1` returned an IC50 of 26 µM. Compound `Cc1nc2cc(-c3cccc(F)c3)nn2c(C)c1CCC(=O)N1CCC2(CC1)OCCO2` [1-(1,4-dioxa-8-azaspiro[4.5]decan-8-yl)-3-[2-(3-fluorophenyl)-5,7-dimethyl-6-pyrazolo[1,5-a]pyrimidinyl]-1-propanone] came in with an IC50 above 50 µM. In turn, `CCOc1cc(/C=C(/C#N)c2ccc(F)cc2)ccc1OCc1ccc(C(=O)O)o1` [5-[[4-[(E)-2-cyano-2-(4-fluorophenyl)ethenyl]-2-ethoxyphenoxy]methyl]furan-2-carboxylic acid] displayed a 50% inhibitory concentration (IC50) of 36.7 µM. Compound `CCCCn1c(SCC(=O)c2ccc(OC)cc2OC)nc2cc(S(N)(=O)=O)ccc21` [1-butyl-2-[2-(2,4-dimethoxyphenyl)-2-oxidanylidene-ethyl]sulfanyl-benzimidazole-5-sulfonamide] came in with an IC50 of 45.6 µM. For the compound `N#Cc1c(N2CCCC2)nc(N)c2c(N)nc(N3CCCC3)cc12` [SMR000061605], half-maximal inhibition (IC50) required 18.8 µM. The result for `O=C1C=C(NCc2ccc(Cl)c(Cl)c2)CC1` [3-[(3,4-dichlorobenzyl)amino]cyclopent-2-en-1-one] reads above 50 µM; that for `COc1cc(/C=C(/C#N)c2ccc(F)cc2)ccc1OCc1ccc(C(=O)O)o1` [5-({4-[2-cyano-2-(4-fluorophenyl)vinyl]-2-methoxyphenoxy}methyl)-2-furoic acid], above 50 µM; that for `CCCSc1nnc(NC(=O)c2sc3nc(-c4cccs4)ccc3c2N)s1` [3-amino-N-(5-propylsulfanyl-1,3,4-thiadiazol-2-yl)-6-thiophen-2-ylthieno[2,3-b]pyridine-2-carboxamide], 21.8 µM. `CC1=C(/C=C/C(C)=C/C=C/C(C)=C/C(=O)O)C(C)(C)CCC1` [ALL-TRANS-RETINOIC ACID] returned a concentration for half-maximal inhibition (IC50) of 42.9 µM. Turning to `Cc1cccc(NC(=O)c2cc(NC(=O)C3CCCCC3C(=O)O)ccc2N2CCCCC2)c1` (stereo not given) [2-({[3-{[(3-methylphenyl)amino]carbonyl}-4-(1-piperidinyl)phenyl]amino}carbonyl)cyclohexanecarboxylic acid], the IC50 was above 50 µM. In the case of `O=C(OC1CCCCC1)c1ccc2c(c1)C1C=CCC1C(C(=O)O)N2` (stereo not given) [SMR000019385], the IC50 is 14.5 µM.

`[O-]/[N+](=C/c1ccc(F)cc1)c1ccccc1` [(E)-(4-fluorobenzylidene)(phenyl)azane oxide] showed an IC50 above 50 µM.

`Cc1cc(C)n2c(SCC(=O)N3CCN(S(=O)(=O)c4ccc(Cl)cc4)CC3)nnc2n1` [1-[4-(4-chlorophenyl)sulfonyl-1-piperazinyl]-2-[(5,7-dimethyl-[1,2,4]triazolo[4,3-a]pyrimidin-3-yl)thio]ethanone] had an IC50 of 48.8 µM. `[O-]/[N+](=C\c1ccc(OC(F)F)cc1)c1ccccc1` [1-[4-(difluoromethoxy)phenyl]-N-phenylmethanimine oxide] had an IC50 above 50 µM. Turning to `Cc1cc(NC(=O)c2ccc(S(=O)(=O)N3CCCC3)cc2)nc2c1c(=O)oc1ccccc12` [MLS000091355], the IC50 was 24.9 µM. This lies in the double-digit micromolar range.

Regarding `N#Cc1c(NC(=O)c2ccc(Br)o2)n(-c2ccccc2)c2nc3ccccc3nc12` [5-bromanyl-N-(3-cyano-1-phenyl-pyrrolo[3,2-b]quinoxalin-2-yl)furan-2-carboxamide], the IC50 came to 24.4 µM. Under `COc1ccc(Cn2c(C)nc3c(c2=O)c2nc4ccccc4nc2n3Cc2ccco2)cc1` [MLS000079944] stands 21.6 µM; under `CCOc1ccc(-c2cc3nc(C4CCN(C(=O)OC(C)(C)C)CC4)c(C(=O)O)cn3n2)cc1` [2-(4-ethoxyphenyl)-5-[1-[(2-methylpropan-2-yl)oxy-oxomethyl]-4-piperidinyl]-6-pyrazolo[1,5-a]pyrimidinecarboxylic acid], 30.5 µM. Turning to `CC(C)Cn1c(N)c(C(=O)COC(=O)c2cc(-c3ccco3)nc3ccccc23)c(=O)n(C)c1=O` [2-(2-furanyl)-4-quinolinecarboxylic acid [2-[4-amino-1-methyl-3-(2-methylpropyl)-2,6-dioxo-5-pyrimidinyl]-2-oxoethyl] ester], half-maximal inhibition (IC50) was put at 24.2 µM. For the compound `COC(=O)c1ccccc1NC(=O)CN1C(=O)C2CCCN2c2ncc(Cl)cc21` (stereo not given) [MLS000094302], it took 46.2 µM to reach half-maximal inhibition (IC50). The result for `COc1ccc(-c2cc3nc(C4CCN(C(=O)OC(C)(C)C)CC4)c(C(=O)O)cn3n2)cc1` [2-(4-methoxyphenyl)-5-[1-[(2-methylpropan-2-yl)oxy-oxomethyl]-4-piperidinyl]-6-pyrazolo[1,5-a]pyrimidinecarboxylic acid] reads 33.9 µM; that for `COc1ccc(Br)cc1C=c1sc2nc(-c3ccco3)nn2c1=O` [5-[(5-bromanyl-2-methoxy-phenyl)methylidene]-2-(furan-2-yl)-[1,3]thiazolo[3,2-b][1,2,4]triazol-6-one], 12.8 µM.

Turning to `COc1ccc2noc3c2c1C(=O)c1ccccc1-3` [MLS000106874], the IC50 stood at 46.1 µM. Compared with the last compound, the IC50 is about 3.6-fold higher. The compound `O=C1c2ccccc2-c2onc3ccc(NCCCn4ccnc4)c1c23` [SMR000044769] yielded an IC50 of 27.7 µM. In the case of `O=C(c1cccs1)c1no[n+]([O-])c1C(=O)c1cccs1` [(5-oxidanidyl-4-thiophen-2-ylcarbonyl-1,2,5-oxadiazol-5-ium-3-yl)-thiophen-2-yl-methanone], the half-maximal inhibitory concentration (IC50) was determined as 6.39 µM.

On to `Nc1c(N2CCCC2)cc(Cl)c2nonc12` [(7-chloro-5-pyrrolidino-benzofurazan-4-yl)amine], for which the IC50 was above 50 µM. In turn, `O=C(Nc1ccccc1)c1ccc2nc(-c3ccco3)c(-c3ccco3)nc2c1` [2,3-di-2-furyl-N-phenyl-6-quinoxalinecarboxamide] came in with an IC50 of 35.7 µM. The result for `[O-]/[N+](=C\c1ccncc1)c1ccccc1` reads above 50 µM. Under `COCCCn1c(N)c(C(=O)NCCC(C)C)c2nc3ccccc3nc21` [MLS000041744] stands above 50 µM; under `CCCCCC#CCC#CCC#CCC#CCCCC(=O)O`, 12.1 µM. `N#Cc1c(N)sc(=S)c2c1CCN(Cc1ccccc1)C2` [3-Amino-7-benzyl-1-thioxo-5,6,7,8-tetrahydro-1H-thiopyrano[3,4-c]pyridine-4-carbonitrile] displayed an IC50 of 7.34 µM. The result for `O=C1C(=C2C(=O)c3ccccc3C2=O)Nc2ccccc21` [MLS000071738] reads above 50 µM; that for `Nc1nc2c(s1)CCc1c-2cnn1-c1ccccc1` [MLS000085948], above 50 µM. As for `CCn1c(SCC(=O)Nc2ccc3c(c2)c2ccccc2n3CC)nnc1-c1ccco1` [MLS000050867], 20.3 µM corresponded to half-maximal inhibition (IC50). `Cc1c(N=c2c(=O)c3ccccc3c2=O)c(=O)n(-c2ccccc2)n1C` [MLS000105950] had an IC50 of 26.2 µM.

The compound `FC(F)(F)c1ccc(N2CCOCC2)c(Nc2nc3ccccc3n3cnnc23)c1` [MLS000093276] showed an IC50 above 50 µM. Under `CCc1ccc(NC(=O)CSc2nc3ccccc3c(=O)n2CCN2CCOCC2)cc1` [MLS000095236] stands above 50 µM; under `CCCCNC(=O)c1c(N)n(CCCOC)c2nc3ccccc3nc12` [2-amino-N-butyl-1-(3-methoxypropyl)-3-pyrrolo[3,2-b]quinoxalinecarboxamide], 47.1 µM.

The compound `CCn1nc(-c2cccs2)nc2c(=O)n(C)c(=O)nc1-2` [1-ethyl-6-methyl-3-thiophen-2-yl-pyrimido[5,4-e][1,2,4]triazine-5,7-dione] yielded an IC50 of 1.24 µM. Compared with the last compound, the IC50 is about 38-fold lower. As for `Cc1ccc(/C=C/C2=Cc3c(sc(NC(=O)CSc4nnc(N)[nH]4)c3C#N)C(C)(C)C2)o1` [2-[(5-azanyl-1H-1,2,4-triazol-3-yl)sulfanyl]-N-[3-cyano-7,7-dimethyl-5-[(E)-2-(5-methylfuran-2-yl)ethenyl]-6H-1-benzothiophen-2-yl]ethanamide], 17.8 µM corresponded to half-maximal inhibition (IC50). Under `CCn1nc(-c2ccccc2)nc2c(=O)n(C)c(=O)nc1-2` [1-Ethyl-6-methyl-3-phenyl-1H-pyrimido[5,4-e][1,2,4]triazine-5,7-dione] stands 1.19 µM.

`O=C(NC1(O)C(=O)c2ccccc2C1=O)c1ccccc1` [N-(2-hydroxy-1,3-dioxo-2-indenyl)benzamide] showed an IC50 of 48.2 µM. Against the preceding compound, the IC50 is about 41-fold higher. As to `CCCCn1c(NC(=O)c2ccccc2)c(C#N)c2nc3ccccc3nc21` [SMR000060333], inhibition was half-maximal at 30 µM (IC50). `Cn1ncnc2c(=O)n(C)c(=O)nc1-2` came in with an IC50 of 0.743 µM. Compared with the last compound, the IC50 is about 40-fold lower.
